These results are taken from publication PMC11538636, “Electro‐Driven Multi‐Enzymatic Cascade Conversion of CO2 to Ethylene Glycol in Nano‐Reactor” (Advanced Science, 2024).

One assay concerns the target T1, BmFADH (Burkholderia multivorans, UniProt A0A0H3KP42).
T1 construct: gene fdhA2; recombinant in E. coli BL21(DE3), pETDuet, C-terminal His-tag; Zn2+ dependent
T1 sequence (A0A0H3KP42 1-398): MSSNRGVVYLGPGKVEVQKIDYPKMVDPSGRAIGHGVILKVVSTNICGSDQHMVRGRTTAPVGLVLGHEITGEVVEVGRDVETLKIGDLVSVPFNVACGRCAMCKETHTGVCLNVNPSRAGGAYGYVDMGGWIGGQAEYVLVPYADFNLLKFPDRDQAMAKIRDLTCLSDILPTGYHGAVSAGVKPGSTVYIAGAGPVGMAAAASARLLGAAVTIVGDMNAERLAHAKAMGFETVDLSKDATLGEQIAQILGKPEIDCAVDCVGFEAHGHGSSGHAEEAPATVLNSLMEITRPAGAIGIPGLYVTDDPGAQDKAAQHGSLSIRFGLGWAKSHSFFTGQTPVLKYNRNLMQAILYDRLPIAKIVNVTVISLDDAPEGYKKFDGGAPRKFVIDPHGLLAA
The assay can be described thus: NADH consumption at […] nm. As to conditions: 1 mM NADH, 5 mM NaMeO2, 50 mM phosphate pH 7.5, 2 h. The class given is biochemical.

A further assay has as its system T2, GoADH.
T2 construct: gene adh; recombinant in E. coli BL21(DE3), pETDuet, C-terminal His-tag; codon-optimized gene; Zn2+ dependent
Nature of the assay: steady-state kinetics, Michaelis-Menten fit. Conditions: NADH co-substrate; free enzyme; glycolaldehyde reduction. The format is biochemical, Gluconobacter oxydans.

Regarding `NC(=O)C1=CN([C@@H]2O[C@H](COP(=O)(O)OP(=O)(O)OC[C@H]3O[C@@H](n4cnc5c(N)ncnc54)[C@H](O)[C@@H]3O)[C@@H](O)[C@H]2O)C=CC1` [NADH], at BmFADH, the “NADH consumption at 340 nm” value was “activity of PaFDH, BmFADH, and GoADH was determined by measuring the consumed NADH”.

Consider `O=CCO` [glycolaldehyde], for which the Km (as a rule, the substrate concentration at which the rate is half of its maximum) with GoADH came to 432 µM.
